Experimental data as given in ChEMBL document CHEMBL3763104, “Antibacterial and antifungal activities of 2,3-pyrrolidinedione derivatives against oral pathogens” (2016).

Experiments:
Candida albicans [1] = assay: Antimicrobial activity against Candida albicans ATCC 90028 biofilm at 0.2 % after 1 hr by MTT assay relative to control; type: functional
Candida albicans [2] = assay: Antimicrobial activity against Candida albicans ATCC 90028 biofilm at 1 % after 1 hr by MTT assay relative to control; type: functional
Candida albicans [3] = assay: Antimicrobial activity against Candida albicans ATCC 90028 biofilm after 1 hr by MTT assay; type: functional, organism-based
Streptococcus mutans [4] = assay: Antimicrobial activity against Streptococcus mutans ATCC 35668 biofilm at 1 % after 1 hr by MTT assay relative to control; type: functional
Candida albicans [5] = assay: Antimicrobial activity against Candida albicans ATCC 90028 biofilm at 0.004 % after 1 hr by MTT assay relative to control; type: functional
Streptococcus mutans [6] = assay: Antimicrobial activity against Streptococcus mutans ATCC 35668 biofilm at 0.04 % after 1 hr by MTT assay relative to control; type: functional
Streptococcus mutans [7] = assay: Antimicrobial activity against Streptococcus mutans ATCC 35668 biofilm at 0.008 % after 1 hr by MTT assay relative to control; type: functional
Candida albicans [8] = assay: Antimicrobial activity against Candida albicans ATCC 90028 biofilm at 0.008 % after 1 hr by MTT assay relative to control; type: functional
Streptococcus mutans [9] = assay: Antimicrobial activity against Streptococcus mutans ATCC 35668 biofilm at 0.2 % after 1 hr by MTT assay relative to control; type: functional

Compound | inhibition (INH) (Candida albicans [1]) [%] | inhibition (INH) (Candida albicans [2]) [%] | inhibition (Candida albicans [3]) | inhibition (INH) (Streptococcus mutans [4]) [%] | inhibition (INH) (Candida albicans [5]) [%] | inhibition (INH) (Streptococcus mutans [6]) [%] | inhibition (INH) (Streptococcus mutans [7]) [%] | inhibition (INH) (Candida albicans [8]) [%] | inhibition (INH) (Streptococcus mutans [9]) [%]
COc1ccc(CN2CC(CO)=C(OCc3ccccc3)C2=O)cc1 | 20.9 | 36.1 | Dose-dependent effect | 5 | 6.3 | 4.5 | 0 | 7.5 | 2.8
CCOC(=O)C1=C(OCc2ccccc2)C(=O)NC1 | 27.9 | 43.2 | Dose-dependent effect | 3.4 | 23.2 | 3 | 1.3 | 9.2 | 4.8
CCOC(=O)C1=C(OCc2ccccc2)C(=O)N(C(=O)[C@@H](N)C(C)C)C1.O=C(O)C(F)(F)F | 11.9 | 36.7 | – | 47.3 | 12.3 | 1.2 | 0.7 | 18.5 | 3.1
CCOC(=O)C1=C(O[Si](C)(C)C(C)(C)C)C(=O)N(Cc2ccc(OC)cc2)C1 | 12.2 | 17 | – | 50.6 | 11.8 | 0.1 | 1.4 | 23.5 | 1.8
CCOC(=O)C1=C(OCc2ccccc2)C(=O)N(C(=O)C(NC(=O)OC(C)(C)C)C(C)C)C1 (stereo unspecified) | 16.7 | 50.7 | Dose-dependent effect | 89.5 | 7.3 | 28 | 23.1 | 10.1 | 48.6
COc1ccc(CN2CC(CO)=C(O[Si](C)(C)C(C)(C)C)C2=O)cc1 | 21.3 | 1 | – | 19.1 | 19.4 | 15.4 | 11.4 | 4.5 | 13.3
CCOC(=O)C1=C(O)C(=O)N(Cc2ccc(OC)cc2)C1 | 10.7 | 45.5 | – | 25.6 | 17.2 | 3.4 | 0 | 19.8 | 51.3
CCOC(=O)C1=C(OCc2ccccc2)C(=O)N(Cc2ccc(OC)cc2)C1 | 23.1 | 32.3 | Dose-dependent effect | 0 | 14.7 | 5 | 1 | 6 | 2.7
CCOC(=O)C1=C(OC)C(=O)N(C(=O)C(NC(=O)OC(C)(C)C)C(C)C)C1 (stereo unspecified) | 15.7 | 30.7 | Dose-dependent effect | 32.6 | 7.8 | 9.4 | 5 | 0 | 16.1
N=C(NCCCCCCNC(=N)NC(=N)Nc1ccc(Cl)cc1)NC(=N)Nc1ccc(Cl)cc1 [CHLORHEXIDINE] | 49.9 | – | – | – | – | – | – | – | 93.6
CCCCCCCC/C=C/C1=C(OCc2ccccc2)C(=O)N(Cc2ccc(OC)cc2)C1 | 34 | 60.8 | Dose-dependent effect | 93.2 | 24.5 | 14.1 | 2.4 | 0.2 | 92.7
CCCCCCCCCCC1=C(O[Si](C)(C)C(C)(C)C)C(=O)N(Cc2ccc(OC)cc2)C1 | 1.9 | 31.6 | – | 0 | 9 | 4.3 | 10.7 | 12.1 | 3.4
